Data set [1] relates to SOD1^G93A (ALS) and SOD1^WT mouse embryonic stem cell-derived motor neurons. Put plainly: Two-color screen for agents preferentially toxic to ALS motor neurons (mixed WT/G93A ES-MN culture). The format is cell-based. The settings on record: for Preferential activity on ALS motor neurons: independent pair of WT and G93A lines. How it is done:
GFP+ and RFP+ motor neurons were seeded in 96-well plates at equal proportions and imaged using a whole-well imaging platform (Plate Runner HD, Trophos, Marseilles, France). Live cells were scored with an automated image software (Metamorph, Molecular Devices, LLC, Sunnyvale, Calif.) using a neurite outgrowth criterion of five times the cell body diameter. Compounds from a small molecule library (Trophos) were loaded using automated liquid handling, and motor neuron survival was scored at 48 and 72 hours after exposure to stressors.
A survival ratio was calculated by dividing surviving % red cells with green cells for each well (lower left panel). Compounds eliciting ratios greater than 1.6 were considered hits (highlighted in lower left panel).
Multiple ES cell lines from SOD1^G93A mice that had been bred to a reporter strain expressing GFP under the motor neuron-specific Hb9 promoter were generated. ES cells from mice overexpressing wildtype human SOD1 (SOD1^WT) bred to mice expressing a new Hb9::RFP reporter (K. C. Kanning, unpublished) were used as controls. When differentiated in vitro using retinoic acid and an agonist of the sonic hedgehog pathway, these ES cells therefore generated green ALS motor neurons and red controls (FIG. 1A). By mixing these in equal numbers in culture, the response of ALS and control motor neurons to otherwise identical culture conditions could be quantified. This approach would reduce noise due to differences in individual culture wells, seeding density, position in incubator, etc., and that the ratio between numbers of WT and G93A cells would be a sensitive measure of selective vulnerability.
Using this assay miniaturized to a 96-well format, it was confirmed that after 3 days in either the presence or absence of a cocktail of neurotrophic factors, there was only a subtle decrease in ALS motor neuron survival relative to controls. An open-ended screen of the Tocriscreen Mini and Custom collection library of bioactive compounds was therefore performed to identify agents of known mechanism that could selectively induce death of ALS motor neurons. A total of 1,275 compounds were screened initially at a single concentration (10 μM), and those that were deemed too toxic were retested at 1 μM. […] Preferential activity on ALS motor neurons was subsequently confirmed for 4 of the hits using an independent pair of WT and G93A lines (FIG. 1B). The active compounds were: (a) capsaicin, an agonist of the […] receptor that is predominantly expressed on sensory neurons, (b) CPA (cyclopiazonic acid), which is an inhibitor of SERCA (sarco(endo)-plasmic reticulum Ca^++-ATPase) pumps, which sequester Ca^++ into the ER from the cytoplasm in an ATP-dependent manner (FIG. 2A), (c) DH97, a potent MT2 melatonin receptor antagonist, and (d) 2,3-DCPE, a compound that selectively induces apoptosis and downregulates Bcl-xL expression in human cancer vs. normal cells in vitro. The inventors focused on CPA because it induced the most robust change in the WT/G93A ratio (>3 in both combinations of ES lines) and because of the relevance of its mechanism of action to the alterations in Ca^++ handling that are characteristic of ALS motor neurons.
We first asked whether the actions of CPA were direct on motor neurons, or mediated by other cell types present in the mixed culture used for screening. […] Thus, degeneration induced by SERCA inhibition robustly differentiates between SOD1^G93A and SOD1^WT motor neurons. Neither thapsigargin nor CPA has gross effects on neuronal function. […] This provides further support for the notion that the selective effect of SERCA inhibitors on ALS motor neurons is a function of the disease.
A library of small molecule compounds (Tocriscreen Mini & Custom collection, 1275 compounds, or other collections of novel compounds) will be added at a concentration of 10 μM using automated liquid handling. The compounds will be added to the wells following the 20 hour imaging time point. […]

The subject of data set [2] is neurons of the pre-Botzinger complex. The following applies: cited from earlier work.
The test system of data set [3] is ES-MNs (G93A and WT). Put plainly: Fura-2 calcium imaging of Ca++ release from ER stores. The format is cell-based, mouse. The following applies: 10 μM CPA, 20 minutes. From the text:
To explore potential mechanisms underlying the ALS-selective toxicity of CPA, calcium imaging in ES-MNs loaded with the calcium indicator dye Fura-2 was used. In preliminary experiments, rise and fall constants following a 5-second pulse of kainic acid were monitored, and no significant difference between the G93A and WT lines were found (FIG. 2B). […] It was hypothesized that CPA might selectively induce an imbalance in Ca^++ handling. To monitor release of Ca^++ from endoplasmic reticulum (ER) stores, ES-MNs of each genotype were incubated for 20 minutes with 10 μM CPA. An initial rapid increase of Fura-2 signal was followed by a slow recovery, as Ca^++ was sequestered by other routes, out of which mitochondria may be the main compensatory compartment.

In data set [4] the test system is SOD1^G93A mice. The settings on record: in vivo; cited from earlier work.

Read-outs that look alike come from different tables or passages of the source.

`OCCNCCCOc1cccc(Cl)c1Cl` [2,3-DCPE]: the “Preferential activity on ALS motor neurons” value (“Preferential activity” for short) in data set [1] is listed as “confirmed”.

In the case of `CC(=O)C1=C(O)[C@@H]2[C@H]3c4c[nH]c5cccc(c45)C[C@H]3C(C)(C)N2C1=O` [CPA, cyclopiazonic acid], the “effect on respiratory rhythm” value in data set [2] (applied to neurons of the pre-Botzinger complex) is reported as “do not affect respiratory rhythm”. Further, the “G93A cells with greater initial Ca++ release” value in data set [3] is given as “about 40%”. For the same compound, in data set [1] (7.5 μM, after 48 hours), the “reduction in WT motor neurons numbers” value was 40-50% and the “survival ratio (red WT cells/green mutant cells)” value is given as 1.6-1.75. Also, in data set [1] (both combinations of ES lines), the “change in the WT/G93A ratio” value was greater than 3.

Regarding `CCCCC(=O)NCCc1c(Cc2ccccc2)[nH]c2ccccc12` [DH97], in data set [1], the “Preferential activity” value is “confirmed”.

For `O=C(/C=C/c1ccccc1)NC(NC(=S)Nc1cccc2cccnc12)C(Cl)(Cl)Cl` (centres unmarked) [Salubrinal], in data set [4], the “protection in SOD1^G93A mice” value was “protective”.

In the case of `COc1cc(CNC(=O)CCCC/C=C/C(C)C)ccc1O` [capsaicin], the “Preferential activity” value in data set [1] is “confirmed”.

For the compound `C/C=C(/C)C(=O)O[C@H]1C(C)=C2[C@H]([C@@H]1OC(=O)CCCCCCC)[C@@](C)(OC(C)=O)C[C@H](OC(=O)CCC)[C@@]1(O)[C@H]2OC(=O)[C@@]1(C)O` [thapsigargin], in data set [2], the “effect on respiratory rhythm” value is reported as “do not affect respiratory rhythm”. Besides, in data set [1] (concentrations on the order of 1 nM), the “death of ALS motor neurons relative to controls” value is listed as 2- to 4 fold.
